# Laboratory results published in patent publication US7993681B2, “Methods, compositions and devices for inducing stasis in tissues and organs” (Fred Hutchinson Cancer Research Center, priority 2003, dated 2011).
# Assays:
# C. elegans embryos = assay: Viability of nematodes in carbon monoxide based atmospheres; assay type: in vivo; conditions: for Viability to adulthood: 0.25 kPa O2/CO, 24 hrs
# Source text: To achieve specific atmospheric conditions the following apparatus was used: a glass syringe barrel having a tip with a locking device such as a LUER-LOK with the large opening of the barrel sealed with a custom-machined steel and rubber fitting to make an airtight seal was locked to via locking device to the inlet port of an environmental chamber having an inlet and an outlet port each fitted with a locking devices such as a LUER-LOK fitting. A defined gas was humidified and provided to the environmental chamber by first venting the gas from a compressed tank (Byrne Specialty Gas, Seattle, Wash.) through a gas washing bottle (500 ml Kimex) filled with double distilled water. The gas washing bottle was connected to the environmental chamber past a gas-flow meter. A gas flow meter was used to provide a regulated 70 cc/min flow through the environmental chamber throughout the 24 hr incubation.
# To test whether induced, reversible stasis could be achieved in C. elegans nematodes, 2-cell C. elegans embryos, L3 larvae or adult nematodes were collected and exposed to either an environment of effectively 100% CO, an environment of 100% N2, an environment comprising 500 ppm oxygen balanced with carbon monoxide, or to environments comprising 100, 500 or 1000 ppm oxygen balanced with nitrogen at room temperature. Nematodes were visualized using differential interference contrast microscopy (also known as Nomarski optics). Images were collected and analyzed using NIH image and Adobe Photoshop 5.5. Embryos are approximately 50 μm in length.
# Environmental chambers and apparatuses. Oxygen deprivation experiments were carried out using a custom atmospheric chamber designed by W. Van Voorhies (Van Voorhies et al., 2000). The chamber is a 30 mL glass syringe (Fisher #14-825-10B) fitted with a custom steel stopper that is lined with two viton o-rings to ensure a tight seal. The stopper is bored through and has a steel lure lock on the exterior face so that a hose carrying compressed gas can be attached. A defined gas mixture is delivered to the chamber at a constant pressure and flow rate from compressed tanks by passing first through a rotometer (Aalborg, flow-tube number 032-41ST) or mass flow controller (Sierra Instruments #810) to monitor flow rate and then through a 500 ml gas washing bottle (Fisher #K28220-5001) containing 250 ml water to hydrate the gas. ¼″ OD nylon (Cole-Parmer #P-06489-06) or FEP (Cole-Parmer #A-06450-05) tubing was used and connections between tubing and the regulators and between the tubing and the rotometers were made with brass John-Guest-type fittings (Byrne Gas). All other connections were made with either microflow quick-connect fittings (Cole-Parmer #A-06363-57, #A-06363-52) or standard lure fittings (Cole-Parmer #A-06359-37, #A-06359-17).
# Viability of nematodes in carbon monoxide based atmospheres. 30-60 embryos were harvested from continuously maintained Bristol N2 and hif-2(ia04) strains as described above. Environmental chambers were continuously perfused at room temperature with pure CO (grade CP) or 500 ppm O2/CO at 70 cc/min for 24 hrs. To achieve 2500 ppm O2/CO or 2500 ppm O2/N2, 5000 ppm O2/N2 was mixed at a 1:1 ratio with either pure CO or pure N2 using two mass flow controllers (Sierra Instruments 810) to precisely monitor flow. Each gas was delivered into a 3-way valve (Cole-Parmer #A-30600-23) at 50 cc/min and the resulting mixture was then passed through a gas washing bottle and into an environmental chamber throughout the 24 hour exposure. All gases were supplied by Byrne Gas (Seattle, Wash.). The 500 ppm O2/CO mixture was certified to 2% of the oxygen content and contained 7000 ppm N2 to ensure a consistent O2/CO ratio throughout the use of the tank.
# Cell biological analysis. […]
# human keratinocytes = assay: Preservation of human skin in carbon monoxide, keratinocyte colony formation; assay type: cell-based
# Protocol: Three human foreskins were obtained for this purpose. The foreskin tissue was preserved in keratinocyte growth medium (KGM) containing insulin, EGF (0.1 ng/ml), hydrocortisone ([…]) and bovine pituitary extract (approx. 50 micrograms/ml of protein). Foreskins were rinsed in PBS, and excess fatty tissue was removed. Each foreskin sample was divided into 2 equal pieces. Each piece was placed into a separate container containing a solution of PBS with 24 mg/ml of Dispase II (from Bacillus Polymyxa EC 3.4.24.4:Roche Diagnostics Corp., Indianapolis, Ind.). One container (containing a foreskin piece in PBS with Dispase II) was kept in a humid chamber in a fume hood. The other container (with the other half of the foreskin in PBS with Dispase II) was placed in the same fume hood in an environmental chamber perfused with humidified 100% CO. Both samples were maintained at room temperature for 24 hrs. Methods used to establish defined atmospheric conditions were identical to those used in Example 1.
# Following the 24 hr exposure to normoxia or 100% CO, keratinocytes were isolated from the foreskins according to the method described by Boyce et al. (1983; 1985; each of which is incorporated herein by reference in its entirety). Briefly, the epidermis from each foreskin sample was removed to a fresh dish containing PBS. The epidermis was minced and homogenized prior to incubation in 3 ml of 0.05% Trypsin, 1 mM EDTA for 5 minutes, at room temperature, to separate basal cells from the epidermis. After incubation, 6 ml of 400 μg/ml (micrograms per ml) Soybean Trypsin Inhibitor, 1 mg/ml BSA was added and the samples were centrifuged at 900 RPM. The supernatant from each sample was discarded and the sample pellets were resuspended in 10 ml of KGM. Each sample was split into two 10 cm plates each of which contained 5 ml KGM and 100 μl of HEPES pH 7.3 (N-2-hydroxyethylpiperazine-N′-2-ethane sulfonic acid). The plates were incubated in a 37° C. incubator perfused with 95% room air, 5% carbon dioxide for five days.
# Cells were inspected visually using an inverted phase contrast microscope. […] Quantitation of the number of viable keratinocytes as judged by colony formation was quantified for two of the three foreskins.
# humans [1] = conditions: around 1000 ppm, more than around 1-2 minutes; cited from earlier work
# mice [2] = assay: Core body temperature, heart rate and movement of mice exposed to H2S (telemetry); assay type: in vivo, mouse
# Source text: Implantation of telemetry devices.
# (§1) Exposure of Mice to Regulated Atmosphere.
# Regulation of Ambient Temperature. […] Mice were exposed to regulated atmosphere as described above.
# mice [3] = assay: Respirometry of mice exposed to H2S; assay type: in vivo, mouse
# Protocol: as §1
# Measurements were over a period of 15 minutes, with the mice in a 0.5 L sealed environmental chamber with flow rates of 500 cc/min. Consumption of oxygen is obtained by subtracting the oxygen concentration when the mouse is present, from the control when the mouse is absent. Likewise, production of carbon dioxide is obtained by subtracting the carbon dioxide concentration when the mouse is present from the control when the mouse is absent. RQ stands for respiratory quotient, and is equal to the ratio of carbon dioxide produced to oxygen […]. […] The change in the respiratory quotient reflects the disparity oxygen consumption and carbon dioxide production by the mice in the presence or absence of the H2S.
# mice [4] = conditions: SHIRPA tests before and after exposure
# humans [5] = conditions: cited from earlier work
# rats = conditions: cited from earlier work
# mice [6] = conditions: 80 ppm, cited from earlier work
# [7] = warming phase after 80 ppm, cabinet 10.5° C.
# [8] = 80 ppm, 15 minutes, 0.5 L chamber, 500 cc/min
smiles,measurement,setting,value
"[C-]#[O+] [CO, Carbon monoxide]",embryogenesis during exposure,C. elegans embryos; 0.05 kPa O2 balanced with carbon monoxide,arrested embryogenesis
same,Viability to adulthood,C. elegans embryos; hif-1(ia04) embryos,83.9% ± 13.8
same,Viability to adulthood,C. elegans embryos; wild-type (N2 strain) embryos,78.7%
same,lethality and suspended animation,"C. elegans embryos; 100% carbon monoxide, 24 hr, room temperature, nematodes",not lethal and induced reversible suspended animation
same,progression through embryogenesis during exposure,C. elegans embryos; 101 kPa CO,did not progress through embryogenesis
same,suspended animation and survival,"C. elegans embryos; 500 ppm oxygen balanced with carbon monoxide, 24 hr",entered into suspended animation and survived
same,skin cell survival in CO versus room air,"human keratinocytes; 100% CO, 24 hrs, human skin",100 fold
same,Total colonies,"human keratinocytes; Foreskin 1, 100% CO 24 hr",542 colonies (many of which
same,Total colonies,"human keratinocytes; Foreskin 2, 100% CO 24 hr",780 colonies (many of which
same,growth of keratinocyte populations,"human keratinocytes; foreskin 24 hr in 100% CO at room temperature, then five days culture, three foreskins",significant growth
same,lethality,humans [1],can expire
"S [H2S, Hydrogen sulfide]",core temperature,"mice [2]; 80 ppm, 90 min, incubator lowered to 18° C., first mouse",28.6 °C
same,heart rate,"mice [2]; 80 ppm, 3 hrs, dropped from 600 bpm",250 bpm
same,core temperature,"mice [2]; 80 ppm, 3 hrs, incubator 18° C., second mouse",18.6 °C
same,recovery after rewarming in room air,"mice [2]; 80 ppm, 6 hrs, seven mice",successfully recovered
same,lowest average core body temperature,"mice [2]; 80 ppm, 6 hrs, seven mice, ambient temperature 13° C.",15 °C
same,lowest core body temperature recorded,"mice [2]; 80 ppm, ambient dropped to less than 10° C. (FIG. 7)",10.7 °C
same,time to recover activity after removal from gassing chamber,"mice [2]; 80 ppm, cabinet 10° C., non-telemetry mouse",approximately 90 min
same,core temperature (estimation from slope of the drop),"mice [2]; 80 ppm, cabinet 10° C., telemetry mouse, electronics failed at 15.3° C.",approximately 12.5 °C
same,core body temperature,"mice [2]; 80 ppm, cabinet 10.5° C., approximately six hours",10.5 °C
same,time to return to normal range of core temperature and activity,"mice [2]; after 90 min at 80 ppm, chamber perfused with room air",≤ 60 min
same,behavior of the animals after exposure,"mice [2]; maintained for 4 weeks after 6 hr at 80 ppm, 15° C.",no apparent change in the behavior
same,core body temperature at which normal movement and respiration were fully apparent,mice [2]; [7],25 °C
same,core body temperature at which weak respiration was observed,mice [2]; [7],14 °C
same,decrease in CO2 production,mice [3]; 80 ppm (FIG. 4A),approximately 3 fold
same,time to decrease in CO2 production / new baseline,mice [3]; 80 ppm (FIG. 4A),approximately 5 minutes
same,drop in carbon dioxide production,mice [3]; [8],3-4 fold
same,drop in oxygen consumption,mice [3]; [8],2-3 fold
same,decrease in cellular respiration,"mice [3]; 80 ppm, core temperature 15° C.",1-20 fold
same,RQ,mice [3]; H2S present (80 ppm),0.58
same,Consumption of oxygen,"mice [3]; H2S present (80 ppm), control minus mouse present",1300 ppm
same,[CO2] ppm,"mice [3]; mouse present, H2S present (80 ppm)",750 ppm
same,behavioral differences after gas exposure,mice [4],no detectable behavioral differences
same,acute effect of a single breath,humans [5]; atmosphere with 0.1% hydrogen sulfide,immediately collapse
same,OSHA limit for humans,humans [5],10 ppm
same,acute effect of exposure,humans [5]; extreme levels (500 ppm),sudden collapse and unconsciousness
same,perinatal neurotoxicity,"rats; 20 or 50 ppm, 7 hours per day, gestation through post-natal day 21, rats",longer dendritic branches with reduced aborization of cerebellar Purkinje cells
same,adverse effects incl. gross and histopathological examination,"rats; 80 ppm, 6 hrs per day, 5 days per week, 90 days, rats",no observed adverse effect
same,"perinatal study, neuropathology and behavior of rat pups",rats; 80 ppm,no neuropathological effects
same,discriminated avoidance responses,"rats; moderate levels, immediately after end of exposure, rats",inhibits discriminated avoidance responses
same,radial arm maze learning,"rats; moderate levels, rats",interferes with the ability of rats to learn a baited radial arm maze task
same,adverse effects incl. gross and histopathological examination,"mice [6]; 6 hrs per day, 5 days per week, 90 days",no observed adverse effect
same,tolerability,mice [6]; exposures lasting up to ten weeks,innocuous
